Results on one compound are retold here after patent US20090062395A1, “RENIN INHIBITORS FOR THE TREATMENT OF HYPERTENSION” (priority 2006, published 2009).

For data set [1], the system named is patients. In words: Long-term study, placebo-controlled randomized withdrawal period from month 11 (visit 10). The settings on record: for Mean change (SD) from Month 11 (Visit 10) in msDBP / Mean change (SD) from Month 11 (Visit 10) in msSBP: continued aliskiren monotherapy 150 or 300 mg. The format is in vivo, human. On the procedure:
Persistence of effect was examined after a long-term study in which patients were treated for approximately 1 year. Patients were randomly assigned to aliskiren at either 150 mg or 300 mg a day. Aliskiren was increased to 300 mg in those patients who had not responded to 150 mg. Starting at the end of treatment month 2 and 3, investigators adjusted individual therapy in order to achieve a goal BP of <140/90 mm Hg. Subsequent upward dose titration required that BP exceed 140/90 for two consecutive visits. No downward titration of aliskiren was permitted.
At month 11 (visit 10), patients who had been maintained on aliskiren monotherapy entered a placebo-controlled randomized withdrawal study to confirm continued efficacy. Eligible patients were stratified based on dose and randomized in a 1:1 ratio to either continue their current treatment of aliskiren monotherapy (aliskiren 150 mg or aliskiren 300 mg) or be switched to placebo in a double-blind fashion.
The potential for a rebound effect on BP with abrupt treatment withdrawal was evaluated.
Rebound was defined as a rise of >5 mm Hg for diastolic and >10 mm for systolic was used and the results are presented separately.

The subject of data set [2] is patients. The data set can be described thus: Abrupt withdrawal of aliskiren after eight weeks of treatment, compared with placebo (FIG. 3). The data set is classed as in vivo, human.
Experimental: In another study, the potential for rebound hypertension following abrupt withdrawal of aliskiren treatment was evaluated in those patients who completed eight weeks of treatment compared to patients that were given a placebo only. The tested doses were 150, 300 and 600 mg of aliskiren.
[3] abbreviates: End point: Month 11 + 28 days or last visit carried forward.
The mark [4] stands for this setting: Visit 11, Month 11 + 7 Days, randomized withdrawal ITT population.

In the case of `COCCCOc1cc(C[C@@H](C[C@H](N)[C@@H](O)C[C@H](C(=O)NCC(C)(C)C(N)=O)C(C)C)C(C)C)ccc1OC` [aliskiren, 2(S),4(S),5(S),7(S)—N-(3-amino-2,2-dimethyl-3-oxopropyl)-2,7-di(1-methylethyl)-4-hydroxy-5-amino-8-[4-methoxy-3-(3-methoxy-propoxy)phenyl]-octanamide], the “Mean change (SD) from Month 11 (Visit 10) in msDBP” value in data set [1] (setting [3]) is on record as 1.2 (6.9) mm Hg; in data set [1] (setting [4]), 0.3 (6.8) mm Hg; in data set [1] (Visit 12, Month 11 + 14 Days) it was 0.3 (6.8) mm Hg; in data set [1] (Visit 13, Month 11 + 21 Days), 0.4 (6.7) mm Hg; in data set [1] (Visit 14, Month 11 + 28 Days), 1.1 (6.8) mm Hg. Also, the “Mean change (SD) from Month 11 (Visit 10) in msSBP” value in data set [1] (setting [3]) is given as 1.7 (10.1) mm Hg; in data set [1] (setting [4]) it was 1.3 (10.3) mm Hg; in data set [1] (Visit 12, Month 11 + 14 Days) it was 0.3 (10.4) mm Hg; in data set [1] (Visit 13, Month 11 + 21 Days) it was 0.5 (10.6) mm Hg; in data set [1] (Visit 14, Month 11 + 28 Days), 1.8 (10.1) mm Hg. Besides, in data set [1] (patients switched to placebo at month 11 after aliskiren 150 or 300 mg monotherapy), the “Persistence of blood pressure lowering effect after withdrawal” value is “a persistence of a blood pressure lowering effect was observed for several weeks after withdrawal”. In data set [1] (rebound defined as rise of >5 mm Hg diastolic and >10 mm systolic), the “Rebound effect on BP with abrupt treatment withdrawal” value is recorded as “no sign of rebound”. Besides, the “Patients with msDBP and msSBP values remaining below baseline” value in data set [2] (4 days and 2 weeks after drug withdrawal, aliskiren 150 mg, 300 mg and 600 mg groups versus placebo group) is “more patients in the aliskiren 150 mg, 300 mg, and 600 mg groups had msDBP and msSBP values that remained below baseline compared with the placebo group”. In addition, the “Persistence of the antihypertensive effect following withdrawal” value in data set [2] (after eight weeks of aliskiren 150, 300 or 600 mg, study period of two weeks) is given as “a good persistence of the antihypertensive effect”. In addition, the “Rebound hypertension following abrupt withdrawal” value in data set [2] (after eight weeks of aliskiren 150, 300 or 600 mg, two weeks after withdrawal) was “no signs of rebound hypertension”. Further, in data set [2] (aliskiren 150, 300 and 600 mg for eight weeks, throughout the drug withdrawal period), the “BP after withdrawal of study drug versus placebo group” value is given as “values still remained lower than those in the placebo group”.
